Where two headings read alike, the source gives them in different places.
How the values were obtained:
[1] = as is well known; except diarrhea no side effects due to overdose observed; cited from earlier work
[2] = test system: Peripheral Neuropathy in a Mouse Caused by Vincristine; type: in vivo, Balb/c mice
Text: (§1) Six to seven-week-old female Balb/c mice were used for the tests. All the mice were acclimated for seven days after arrival. Then, the mice were grouped into the following four groups: a control group, a group receiving vincristine, a group receiving xylitol, and a group receiving vincristine and xylitol (a group receiving vincristine+xylitol). Each group consisted of five mice.
(§2) On Day 8 of acclimation, the mice in the group receiving vincristine and the group receiving vincristine+xylitol were intraperitoneally administered with vincristine at a dose of 0.2 mg/kg. This day was designated as Day 0 of administration. Thereafter, these mice were intraperitoneally administered with vincristine at a daily dose of 0.2 mg/kg on Day 7 and Day 14.
The mice in the group receiving xylitol and the group receiving vincristine+xylitol were orally administered with xylitol at a dose of 5 mg/kg daily from Day 0.
(§3) A cold plate test was performed to examine the effect of xylitol on paresthesia that is caused by a low temperature stimulus. The mice in the four groups described in (7) of the present example (Example 1) were placed on a cold plate set at 10° C., and withdrawal response time (latent time) was measured. It is presumed that a shorter latent time reflects a greater degree of shunning the low temperature stimulus by the cold plate.
as §1, with “tests as with Example 1.” for “tests.”
On Day 8 of acclimation, the mice in the group receiving vincristine and the group receiving vincristine+xylitol were intraperitoneally administered with vincristine at a dose of 0.2 mg/kg. This day was designated as the first day of the administration (Day 0). Thereafter, these mice were intraperitoneally administered with vincristine at the same dose on Day 7 and Day 14 for a total of 3 doses.
The mice in the group receiving 100 mg/kg xylitol were orally administered with xylitol at a dose of 100 mg/kg daily from Day 0. The mice in the group receiving vincristine+100 mg/kg xylitol were orally administered with xylitol at a dose of 100 mg/kg daily from Day 6 of administration.
as §3, with “A” for “A cold plate”, “performed on the mice in the four groups described in (9) of the present example (Example 2)” for “performed”, “respective” for “the four”, “groups” for “groups described in (7) of the present example (Example 1)”
as §1, with “tests as with Example 1.” for “tests.”, “D-threitol,” for “xylitol,”, “D-threitol” for “xylitol”, “vincristine+D-threitol).” for “vincristine+xylitol).”
as §2, with “vincristine+D-threitol” for “vincristine+xylitol”
The mice in the group receiving D-threitol and the group receiving vincristine+D-threitol were orally administered with D-threitol at a dose of 5 mg/kg daily from Day 0.
A cold plate test was performed to examine the effect of D-threitol on paresthesia that is caused by a low temperature stimulus. […]

[3] = 0.2 mg/kg vincristine + 5 mg/kg test substance orally daily from Day 0 (prevention)
[4] = 0.2 mg/kg vincristine + 100 mg/kg orally daily from Day 6, on Day 12, vs group receiving 0.2 mg/kg vincristine

| SMILES | safety for the human body [1] | withdrawal response time (latent time) [2, 3] | withdrawal response time (latent time) ([2]; 0.2 mg/kg vincristine + 100 mg/kg orally daily from Day 6 (therapy), time course after Day 6) | withdrawal response time (latent time) [2, 4] |
| --- | --- | --- | --- | --- |
| OC[C@@H](O)[C@H](O)CO [D-threitol] | safe for the human body | approximately similar to that of the control group | significantly longer withdrawal response time | significantly longer withdrawal response time |
| OC[C@H](O)[C@H](O)[C@H](O)[C@@H](O)CO [L-talitol] | safe for the human body | approximately similar to that of the control group |  | significantly longer withdrawal response time |
| OC[C@@H](O)[C@H](O)[C@@H](O)CO [xylitol] | safe for the human body | approximately similar to that of the control group |  | significantly longer withdrawal response time |

Source: US20240099989A1, “AGENT FOR PREVENTING OR IMPROVING PERIPHERAL NEUROPATHY” (KINKI UNIVERSITY, priority 2021, published 2024)
